Measurements taken from patent publication US20070009965A1, “Novel method for screening for GPCR agonists and/or antagonists from herbs” (Advanced Gene Technology, Corp., priority 2004, published 2007).

Biological target: MC5R (Homo sapiens, UniProt P33032)
Assay: herbal chip hybridization with MC5R and Cy3-anti-MC5R, fluorescence imaging
Format: binding
Settings: at least 25 ng/ml NDP-MSH spotted on coated slide; at least 25 μg/ml MC5R; at least 5 μg/ml Cy3-anti-MC5R; laser scanner
Description: A coated plastic slide (1) having active epoxy groups on its surface was prepared in accordance with the method disclosed in the Paragraph entitled “Pretreatment of the Plastic Slide and Preparation of the Coated Plastic Slide” under the Example section of U.S. Pat. No. 6,645,719 B2.
In a dark room, under room temperature, at least 25 μg/ml of MC3R, MC4R and MC5R were individually added to the slides (2), and the resultant slides (3) were allowed to stand for 1 hour for completing hybridization. The slides (3) were washed with 1× TBST buffer (50 mM Tris, pH 7.3, 0.15 M NaCl and 0.02% Tween 20) and Milli-Q water, and then dried in an incubator at 37° C.
Also in the dark room, under room temperature, at least 5 μg/ml of Cy3-anti-MC3R, Cy3-anti-MC4R and Cy3-anti-MC5R were respectively added to the slides (3), each containing said bound MC3R, MC4R or MC5R. The resultant slides (4) were allowed to stand for 1 hour for completing the specific MCXR-anti-MCXR binding, and were then washed with 1× TBST buffer (50 mM Tris, pH 7.3, 0.15 M NaCl and 0.02% Tween 20) and Milli-Q water, and dried in an incubator at 37° C.

Chain of MC5R (P33032 whole entry, species assumed): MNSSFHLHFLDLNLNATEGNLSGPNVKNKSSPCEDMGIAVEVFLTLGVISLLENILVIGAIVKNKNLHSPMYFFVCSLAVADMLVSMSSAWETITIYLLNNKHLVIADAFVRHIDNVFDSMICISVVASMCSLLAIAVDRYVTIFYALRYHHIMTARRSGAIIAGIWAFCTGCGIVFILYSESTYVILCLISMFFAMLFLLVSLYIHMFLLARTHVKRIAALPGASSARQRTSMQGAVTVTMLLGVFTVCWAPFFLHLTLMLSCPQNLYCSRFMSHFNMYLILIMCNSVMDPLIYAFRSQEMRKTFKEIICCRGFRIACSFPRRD

## NH2-Ser-Thr-Ser-Nle-Glu-His-D-Phe-Arg-Trp-Gly-Lys-Pro-Val-OH [NDP-MSH]
  Mean of Fluorescence Intensity (M): 722.50
